The source made the active and inactive calls. How the calls were made is not given here.
System: rodent carcinogenicity bioassays, tumor incidence
Test: CCRIS carcinogenicity studies
How it was run: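 Archive of carcinogenicity, mutagenicity, tumor promotion and tumor inhibition results drawn from journals, NCI reports and other sources, expert-reviewed; covers 1985-2011 and is no longer updated.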

Measured: carcinogen call

CN(C)N=O
active: Species: DUCK, Route: ORAL, Tumor Site: Type of Lesion: LIVER active; positive | Species: FISH, Route: ORAL, Tumor Site: Type of Lesion: LIVER active; positive | Species: GUINEA PIG, Route: ORAL, Tumor Site: Type of Lesion: LIVER active; positive | Species: HAMSTER, Route: ORAL, Tumor Site: Type of Lesion: LIVER active; positive | Species: HAMSTER, Route: SUBCUTANEOUS, Tumor Site: Type of Lesion: LIVER, KIDNEY, NASAL CAVITY, Tumor Site: Type of Lesion: LIVER, KIDNEY, NASAL CAVITY active; positive | Species: HAMSTER, Strain/Sex: SYRIAN/MALE, Route: INTRATRACHEAL, Dose: 0, 0.05, 0.1 MG IN PHOSPHATE BUFFER 1/WK FOR 15 WK (TOTAL DOSE: 0; 0.75; 0.5 MG) (STUDY DURATION: LIFESPAN), Dose: 0, 0.05, 0.1 MG IN PHOSPHATE BUFFER 1/WK FOR 15 WK (TOTAL DOSE: 0; 0.75; 0.5 MG) (STUDY DURATION: LIFESPAN), Tumor Site: Type of Lesion: LIVER: HEMANGIOSARCOMA, TUMOR active; positive | Species: MOUSE, Route: INHALATION, Tumor Site: Type of Lesion: LIVER, LUNG, KIDNEY, Tumor Site: Type of Lesion: LIVER, LUNG, KIDNEY active; positive | Species: MOUSE, Route: INTRAPERITONEAL, Tumor Site: Type of Lesion: LIVER, LUNG, KIDNEY, Tumor Site: Type of Lesion: LIVER, LUNG, KIDNEY active; positive | Species: MOUSE, Route: ORAL, Tumor Site: Type of Lesion: LIVER, LUNG, KIDNEY, Tumor Site: Type of Lesion: LIVER, LUNG, KIDNEY active; positive | Species: MOUSE, Route: SUBCUTANEOUS, Tumor Site: Type of Lesion: LIVER, LUNG active; positive | Species: MOUSE, Strain/Sex: C3H/FEMALE, Route: TRANSPLACENTAL, Dose: 0, 0.1 MMOL IN 0.9% STERILE SALINE (7.4 MG/KG) ON DAY 16 OF GESTATION (STUDY DURATION: LIFETIME), Tumor Site: Type of Lesion: LIVER: CARCINOMA active; positive | Species: MOUSE, Strain/Sex: C3H/FEMALE, Route: TRANSPLACENTAL, Dose: 0, 0.1 MMOL IN 0.9% STERILE SALINE (7.4 MG/KG) ON DAY 19 OF GESTATION (STUDY DURATION: LIFETIME), Tumor Site: Type of Lesion: LIVER: CARCINOMA active; positive | Species: MOUSE, Strain/Sex: C3H/MALE, Route: TRANSPLACENTAL, Dose: 0, 0.1 MMOL IN 0.9% STERILE SALINE (7.4 MG/KG) ON DAY 19 OF GESTATION (STUDY DURATION: LIFETIME), Tumor Site: Type of Lesion: LIVER: CARCINOMA active; positive | Species: MOUSE, Strain/Sex: STRAIN-A/FEMALE, Route: INTRAPERITONEAL, Dose: 0, 5, 20 UMOL TOTAL DOSE ADMINISTERED IN SUBDOSES 3/WK FOR 7 WK (STUDY DURATION: 37 WK), Dose: 0, 5, 20 UMOL TOTAL DOSE ADMINISTERED IN SUBDOSES 3/WK FOR 7 WK (STUDY DURATION: 37 WK), Tumor Site: Type of Lesion: LUNG: TUMOR active; positive | Species: RABBIT, Route: ORAL, Tumor Site: Type of Lesion: LIVER active; positive | Species: RAT, Route: INHALATION, Tumor Site: Type of Lesion: NASAL CAVITY active; positive | Species: RAT, Route: ORAL, Tumor Site: Type of Lesion: LIVER, KIDNEY active; positive | Species: RAT, Route: SUBCUTANEOUS, INTRAPERITONEAL, Tumor Site: Type of Lesion: KIDNEY active; positive | Species: RAT, Strain/Sex: F344/FEMALE, Route: INTRAVESICULAR, Dose: 0, 2 MG IN 0.2 ML ETHANOL: DEIONIZED WATER (1:3) 2/WK FOR 30 WK (TOTAL DOSE: 1.6 MMOL) (STUDY DURATION: LIFESPAN), Tumor Site: Type of Lesion: KIDNEY: MESENCHYMAL NEOPLASM, LUNG: TUMOR active; positive | Species: RAT, Strain/Sex: SPRAGUE-DAWLEY/FEMALE, Route: INHALATION, Dose: 0, 0.04, 0.2, 1 PPM 4-5 HR/D 4 D/WK FOR 207 D (ESTIMATED DAILY UPTAKE OF 0; 10; 40; 180 UG/KG) (STUDY DURATION: 207 D), Dose: 0, 0.04, 0.2, 1 PPM 4-5 HR/D 4 D/WK FOR 207 D (ESTIMATED DAILY UPTAKE OF 0; 10; 40; 180 UG/KG) (STUDY DURATION: 207 D), Tumor Site: Type of Lesion: NASAL CAVITY: TUMOR active; positive | Species: RAT, Strain/Sex: WISTAR/FEMALE, Route: INTRAPERITONEAL, Dose: 0, 0.04% IN 0.1-0.2 ML PHYSIOLOGICAL SALINE 1/D FOR D 1-5 OF LIFE (TOTAL DOSE 0.2 MG) (STUDY DURATION: LIFESPAN OR 1 YR), Tumor Site: Type of Lesion: LIVER: HEPATOCELLULAR CARCINOMA, HEPATOMA, CHOLANGIOMA, ANGIOMA, KIDNEY: MESENCHYMAL TUMOR, EPITHELIAL TUMOR active; positive | Species: RAT, Strain/Sex: WISTAR/FEMALE, Route: INTRAPERITONEAL, Dose: 0, 0.04% IN 0.1-0.2 ML PHYSIOLOGICAL SALINE 1/D FOR D 1-10 OF LIFE (TOTAL DOSE 0.4 MG) (STUDY DURATION: LIFESPAN OR 1 YR, Tumor Site: Type of Lesion: LIVER: HEPATOCELLULAR CARCINOMA, HEPATOMA, CHOLANGIOMA, ANGIOMA, KIDNEY: MESENCHYMAL TUMOR, EPITHELIAL TUMOR active; positive | Species: RAT, Strain/Sex: WISTAR/FEMALE, Route: INTRAPERITONEAL, Dose: 0, 0.04% IN 0.1-0.2 ML PHYSIOLOGICAL SALINE 1/D FOR D 1-20 OF LIFE (TOTAL DOSE 0.5 MG) (STUDY DURATION: LIFESPAN OR 1 YR, Tumor Site: Type of Lesion: LIVER: HEPATOCELLULAR CARCINOMA, HEPATOMA, ANGIOMA, KIDNEY: MESENCHYMAL TUMOR active; positive | Species: RAT, Strain/Sex: WISTAR/FEMALE, Route: ORAL, Dose: 0, 0.033, 0.066, 0.132, 0.264, 0.528, 1.056, 1.584, 2.112, 2.640, 3.168, 4.224, 5.280, 6.336, 8.448, 16.896 PPM IN DRINK, Dose: 0, 0.033, 0.066, 0.132, 0.264, 0.528, 1.056, 1.584, 2.112, 2.640, 3.168, 4.224, 5.280, 6.336, 8.448, 16.896 PPM IN DRINK, Tumor Site: Type of Lesion: LIVER: HEPATOCELLULAR CARCINOMA, HEMANGIOMA, BILE DUCT: TUMOR active; positive | Species: RAT, Strain/Sex: WISTAR/MALE, Route: INTRAPERITONEAL, Dose: 0, 0.04% IN 0.1-0.2 ML PHYSIOLOGICAL SALINE 1/D FOR D 1-5 OF LIFE (TOTAL DOSE 0.2 MG) (STUDY DURATION: LIFESPAN OR 1 YR), Tumor Site: Type of Lesion: LIVER: HEPATOCELLULAR CARCINOMA, HEPATOMA, CHOLANGIOMA, KIDNEY: MESENCHYMAL TUMOR, EPITHELIAL TUMOR active; positive | Species: RAT, Strain/Sex: WISTAR/MALE, Route: INTRAPERITONEAL, Dose: 0, 0.04% IN 0.1-0.2 ML PHYSIOLOGICAL SALINE 1/D FOR D 1-10 OF LIFE (TOTAL DOSE 0.4 MG) (STUDY DURATION: LIFESPAN OR 1 YR, Tumor Site: Type of Lesion: LIVER: HEPATOCELLULAR CARCINOMA, HEPATOMA, CHOLANGIOMA, ANGIOMA, KIDNEY: MESENCHYMAL TUMOR, EPITHELIAL TUMOR active; positive | Species: RAT, Strain/Sex: WISTAR/MALE, Route: INTRAPERITONEAL, Dose: 0, 0.04% IN 0.1-0.2 ML PHYSIOLOGICAL SALINE 1/D FOR D 1-20 OF LIFE (TOTAL DOSE 0.5 MG) (STUDY DURATION: LIFESPAN OR 1 YR, Tumor Site: Type of Lesion: LIVER: HEPATOCELLULAR CARCINOMA, HEPATOMA, ANGIOMA, KIDNEY: MESENCHYMAL TUMOR active; positive | Species: RAT, Strain/Sex: WISTAR/MALE, Route: ORAL, Dose: 0, 0.033, 0.066, 0.132, 0.264, 0.528, 1.056, 1.584, 2.112, 2.640, 3.168, 4.224, 5.280, 6.336, 8.448, 16.896 PPM IN DRINK, Dose: 0, 0.033, 0.066, 0.132, 0.264, 0.528, 1.056, 1.584, 2.112, 2.640, 3.168, 4.224, 5.280, 6.336, 8.448, 16.896 PPM IN DRINK, Tumor Site: Type of Lesion: LIVER: HEPATOCELLULAR CARCINOMA, HEMANGIOMA, BILE DUCT: TUMOR active; positive
inactive: Species: HAMSTER, Strain/Sex: SYRIAN/MALE, Route: INTRATRACHEAL, Dose: 0, 0.5 MG IN PHOSPHATE BUFFER ONCE (STUDY DURATION: LIFESPAN) inactive; negative | Species: MOUSE, Strain/Sex: C3H/MALE, Route: TRANSPLACENTAL, Dose: 0, 0.1 MMOL IN 0.9% STERILE SALINE (7.4 MG/KG) ON DAY 16 OF GESTATION (STUDY DURATION: LIFETIME) inactive; negative

Source: PubChem BioAssay AID1259411 (Chemical Carcinogenesis Research Information System (CCRIS), 2018)
